Consider 18 compounds from patent US20060128721A1, “Novel formulations of opioid-based treatments of pain comprising substituted 1,4-di-piperidin-4-yl-piperazine derivatives” (priority 2003, published 2006).

In general, ED50 refers to the midpoint of the dose-response relation.

The target of test [1] is T1, cloned human h-NK1 receptors expressed in CHO cells (Homo sapiens, UniProt P25103).
T1 construct: expressed in transfected cells; host or cells: CHO cells
In words: Binding experiment for h-NK1 receptors ([3H]-Substance P displacement). As to conditions: read-out: h-NK1 pIC50 (converted). How it is done:
(§1) The compounds according to the invention were investigated for interaction with various neurotransmitter receptors, ion channels and transporter binding sites using the radioligand binding technique. Membranes from tissue homogenates or from cells, expressing the receptor or transporter of interests, were incubated with a radioactively labelled substance ([^3H]- or [^125I] ligand) to label a particular receptor. […] Following incubation, labelled membranes were harvested and rinsed with excessive cold buffer to remove non-bound radioactivity by rapid filtration under suction. Membrane bound radioactivity was counted in a scintillation counter and results were expressed in counts per minute (cpm).
(§2) The compounds were dissolved in DMSO and tested at 10 concentrations ranging from 10^−10 to 10^−5 M.
(§3) The ability of the compounds according to the invention to displace [^3H]-Substance P from cloned human h-NK1 receptors expressed in CHO cells, to displace [^3H]-SR-48968 from cloned human h-NK2 receptors expressed in Sf9 cells, and to displace [^3H]-SR-142801 from cloned human h-NK3 receptors expressed in CHO cells was evaluated.

In test [2] the test system is loperamide-induced retching. As to the kind of experiment: Antiemetic effects: loperamide-induced retching in ferrets. It is filed as in vivo. As to conditions: for Ratio p.o./s.c. of ED50 for blockade of retching: p.o. (−2 h) over s.c. (−1 h). The protocol:
The antiemetic effects have been determined using the loperamide-induced retching model (i.e. retching induced by an opioid) in ferrets. To exclude species differences in antiemetic activiey, both compounds have also been tested for antiemetic activity against apomorphine in dogs.
Antagonism of emesis induced by the peripherally selective opioid loperamide (0.31 mg/kg, s.c.) was studied over a 1 h-period starting immediately after the emetic challenge in ferrets pretreated with test compound or solvent. In control animals pre-treated with solvent, loperamide induced pronounced retching (mean±SD: 95±39 counts; n=[…]) and, to a lesser extent, vomiting (5±4).

Test [3] concerns the target T2, cloned human h-NK2 receptors expressed in Sf9 cells (Homo sapiens, UniProt P21452).
T2 construct: expressed in transfected cells; host or cells: Sf9 cells
T2 sequence (P21452 1-398): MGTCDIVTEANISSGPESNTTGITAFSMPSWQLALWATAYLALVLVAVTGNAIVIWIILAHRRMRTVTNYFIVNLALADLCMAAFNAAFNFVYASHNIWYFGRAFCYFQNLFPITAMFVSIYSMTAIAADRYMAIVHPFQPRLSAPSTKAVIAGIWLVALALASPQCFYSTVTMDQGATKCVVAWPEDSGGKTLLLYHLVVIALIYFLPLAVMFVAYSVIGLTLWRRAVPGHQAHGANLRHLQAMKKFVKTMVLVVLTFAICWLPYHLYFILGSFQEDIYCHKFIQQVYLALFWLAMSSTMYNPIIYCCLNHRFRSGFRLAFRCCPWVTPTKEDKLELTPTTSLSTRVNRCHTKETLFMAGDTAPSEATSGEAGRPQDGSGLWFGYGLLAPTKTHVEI
In words: Binding experiment for h-NK2 receptors ([3H]-SR-48968 displacement). As to conditions: [3H]-SR-48968, Sf9 cells; read-out: h-NK2 pIC50 (converted). How it is done: as §1, §2, §3

[4] abbreviates: read-out: ED50 (95% confidence limits) for blockade of loperamide-induced retching, p.o. route (−2 h), ferrets, loperamide 0.31 mg/kg s.c., 2 h after oral administration, blockade = 0 retches.
The mark [5] stands for this setting: sc, read-out: ED50 for blockade of loperamide-induced retching, ferrets, loperamide 0.31 mg/kg s.c., 1 h after subcutaneous administration, blockade = 0 retches.
[6] abbreviates: ferrets, loperamide 0.31 mg/kg s.c., 1 h after subcutaneous administration, blockade = 0 retches.
The mark [7] stands for this setting: ferrets, loperamide 0.31 mg/kg s.c., 2 h after oral administration, blockade = 0 retches.

The structures appear in SMILES notation. Read-outs that look alike come from different tables or passages of the source.

T1 sequence (P25103 whole entry): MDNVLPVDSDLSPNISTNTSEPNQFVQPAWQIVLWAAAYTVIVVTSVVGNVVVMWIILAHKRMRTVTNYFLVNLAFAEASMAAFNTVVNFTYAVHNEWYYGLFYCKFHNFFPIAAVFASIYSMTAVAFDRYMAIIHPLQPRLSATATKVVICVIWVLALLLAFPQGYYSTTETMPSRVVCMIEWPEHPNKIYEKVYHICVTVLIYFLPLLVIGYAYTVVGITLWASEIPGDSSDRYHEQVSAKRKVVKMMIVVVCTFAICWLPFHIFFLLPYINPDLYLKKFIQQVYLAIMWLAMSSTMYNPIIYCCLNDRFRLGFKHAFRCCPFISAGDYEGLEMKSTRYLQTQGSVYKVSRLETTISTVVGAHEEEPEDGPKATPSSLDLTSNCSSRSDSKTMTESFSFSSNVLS

Turning to `O=C(c1cccc(C(=O)N2CCC(N3CCN([C@H]4CCN(C(=O)c5cc(C(F)(F)F)cc(C(F)(F)F)c5)[C@H](Cc5ccccc5)C4)CC3)CC2)c1)N1CCCC1` [Compound 45], in test [1], the IC50 was 0.316 nM.
As to `O=C(c1cc(C(F)(F)F)cc(C(F)(F)F)c1)N1CC[C@H](N2CCN(C3CCN(C(=O)C4(c5ccccc5)CC4)CC3)CC2)C[C@H]1Cc1ccccc1` [Compound 108], the IC50 in test [1] is 1.58 nM.
For `COc1ccc(-n2cnnn2)cc1CN[C@H]1CCCN[C@H]1c1ccccc1` [GR-203040, (2S,3S)-(2-methoxy-5-tetrazol-1-ylbenzyl)(2-phenylpiperidin-3-yl)amine, reference compound], in test [2] (ferrets), the “Ratio p.o./s.c. of ED50 for blockade of retching” value (from here on “Ratio p.o./s.c. of ED50”) was determined as 3.1. Moreover, the ED50 in test [2] (setting [4]) worked out at 0.2 mg/kg; in test [2] (setting [5]) it was 0.064 mg/kg.
Turning to `O=C(c1cccc(N2CCCC2)c1)N1CCC(N2CCN([C@H]3CCN(C(=O)c4cc(C(F)(F)F)cc(C(F)(F)F)c4)[C@H](Cc4ccccc4)C3)CC2)CC1` [Compound 42], in test [1], the IC50 is 2.51 nM.
For `Cc1nnsc1C(=O)N1CCC(N2CCN([C@H]3CCN(C(=O)c4cc(C(F)(F)F)cc(C(F)(F)F)c4)[C@H](Cc4ccccc4)C3)CC2)CC1` [Compound 143], the IC50 in test [1] is 1 nM; in test [3] it was 794 nM.
For `COc1ccccc1CN[C@H]1C2CCN(CC2)[C@H]1C(c1ccccc1)c1ccccc1` [CP-96345, reference compound], the ED50 in test [2] (sc, 1 h, read-out: ED50 for blockade of loperamide-induced retching, s.c. route (−1 h)) is greater than 10 mg/kg.
Take `Cc1nnsc1C(=O)N1CCC(N2CCN([C@H]3CCN(C(=O)c4cc(C(F)(F)F)cc(C(F)(F)F)c4)[C@H](Cc4ccccc4)C3)CC2)CC1` [Compound 78]: the IC50 was 0.794 nM in test [1] and 398 nM in test [3].
Consider `C[C@@H](O[C@H]1OCCN(Cc2n[nH]c(=O)[nH]2)[C@H]1c1ccc(F)cc1)c1cc(C(F)(F)F)cc(C(F)(F)F)c1` [Aprepitant/MK-869, Aprepitant, reference compound], for which the “ED50 for blockade of loperamide-induced retching, s.c. route (−1 h)” value in test [2] (setting [6]) is greater than 1.25 mg/kg. Besides, in test [2] (setting [7]), the “ED50 (95% confidence limits) for blockade of loperamide-induced retching, p.o. route (−2 h)” value is given as 3.1 (1.9-5.0) mg/kg. For the same compound, the “Ratio p.o./s.c. of ED50” value in test [2] (ferrets) is listed as less than 2.5.
As to `C[C@@H](O[C@H]1OCCN(Cc2n[nH]nc2CN(C)C)[C@H]1c1ccc(F)cc1)c1cc(C(F)(F)F)cc(C(F)(F)F)c1` [Compound L-760735, reference compound], in test [2] (setting [6]), the “ED50 for blockade of loperamide-induced retching, s.c. route (−1 h)” value is 0.31 mg/kg.
Turning to `COc1ccccc1CN[C@H]1CCCN[C@H]1c1ccccc1` [CP-99994, reference compound], in test [2] (ferrets), the “Ratio p.o./s.c. of ED50” value is greater than 16. For the same compound, the ED50 is greater than 10 mg/kg in test [2] (setting [4]) and 0.63 mg/kg in test [2] (setting [5]).
For `CN(Cc1ccccc1)C(=O)C(Cc1ccc2ccccc2c1)NC(=O)[C@@H]1CCCN1C(=O)Nc1ccccc1[N+](=O)[O-]` (stereo partly drawn) [SDZ-NKT-343, 2-Nitrophenylcarbamoyl-(S)-prolyl-3-(2-naphthyl)alanyl-N-benzyl-N-methylamide, reference compound], the “ED50 (95% confidence limits) for blockade of loperamide-induced retching, p.o. route (−2 h)” value in test [2] (setting [7]) is greater than 2.5 mg/kg.
For the compound `Cc1ccc(O)c(CN2CCC(N3CCN(C4CCN(C(=O)c5cc(C(F)(F)F)cc(C(F)(F)F)c5)C(Cc5ccccc5)C4)CC3)CC2)n1` (stereo not shown) [Compound 8], in test [1], the IC50 was 0.631 nM.
The same measure, in the same setting: the figure for `O=C(c1cncc(N2CCCC2)c1)N1CCC(N2CCN(C3CCN(C(=O)c4cc(C(F)(F)F)cc(C(F)(F)F)c4)C(Cc4ccccc4)C3)CC2)CC1` (stereo not shown) [Compound 85] is 3.16 nM; for `O=C(C1CCC1)N1CCC(N2CCN([C@H]3CCN(C(=O)c4cc(C(F)(F)F)cc(C(F)(F)F)c4)[C@H](Cc4ccccc4)C3)CC2)CC1` [Compound 102] it is 1 nM.
In the case of `Cc1nnsc1C(=O)N1CCC(N2CCN([C@H]3CCN(C(=O)c4cc(C(F)(F)F)cc(C(F)(F)F)c4)[C@H](Cc4ccccc4)C3)CC2)CC1` [Compound 142], the IC50 in test [1] is 1.26 nM; in test [3], 631 nM.
Consider `Cc1nnsc1C(=O)N1CCC(N2CCN([C@H]3CCN(C(=O)c4cc(C(F)(F)F)cc(C(F)(F)F)c4)[C@H](Cc4ccccc4)C3)CC2)CC1` [Compound 77, (2-benzyl-4-{4-[1-(4-methyl-[1,2,3]thiadiazole-5-carbonyl)-piperidin-4-yl]-piperazin-1-yl}-piperidin-I -yl)-(3,5-bis-trifluoromethyl-phenyl)-methanone], for which the IC50 was 1 nM in test [1] and 794 nM in test [3]. Besides, the “ratio of oral ED50 (at time of peak effect) over subcutaneous ED50 (obtained at 1 h)” value in test [2] (ferrets) was determined as 1.1. The ED50 in test [2] (ferrets, blockade (=0 retches), intravenous route, 1 h after administration, read-out: ED50 for blockade of loperamide-induced retching) was 0.26 mg/kg; in test [2] (ferrets, blockade (=0 retches), oral route, 1 h after administration, read-out: ED50 for blockade of loperamide-induced retching) it was 0.72 mg/kg; in test [2] (ferrets, blockade (=0 retches), oral route, 2 h after administration, read-out: ED50 for blockade of loperamide-induced retching), 0.42 mg/kg; in test [2] (ferrets, blockade (=0 retches), oral route, 4 h after administration, read-out: ED50 for blockade of loperamide-induced retching), 0.77 mg/kg; in test [2] (ferrets, blockade (=0 retches), oral route, 8 h after administration, read-out: ED50 for blockade of loperamide-induced retching), 0.34 mg/kg; in test [2] (ferrets, blockade (=0 retches), oral route, 16 h after administration, read-out: ED50 for blockade of loperamide-induced retching), 1.66 mg/kg. Besides, the ED50 in test [2] (ferrets, blockade (=0 retches), oral route, 32 h after administration, read-out: ED50 for blockade of loperamide-induced retching) was greater than 2.5 mg/kg; in test [2] (ferrets, inhibition (<20 retches), intravenous route, 1 h after administration, read-out: ED50 for inhibition of loperamide-induced retching) it was 0.15 mg/kg; in test [2] (ferrets, inhibition (<20 retches), oral route, 1 h after administration, read-out: ED50 for inhibition of loperamide-induced retching) it was 0.31 mg/kg; in test [2] (ferrets, inhibition (<20 retches), oral route, 2 h after administration, read-out: ED50 for inhibition of loperamide-induced retching) it was 0.08 mg/kg; in test [2] (ferrets, inhibition (<20 retches), oral route, 4 h after administration, read-out: ED50 for inhibition of loperamide-induced retching), 0.26 mg/kg; in test [2] (ferrets, inhibition (<20 retches), oral route, 8 h after administration, read-out: ED50 for inhibition of loperamide-induced retching) it was 0.29 mg/kg. For the same compound, the ED50 in test [2] (ferrets, inhibition (<20 retches), oral route, 16 h after administration, read-out: ED50 for inhibition of loperamide-induced retching) is 0.73 mg/kg; in test [2] (ferrets, inhibition (<20 retches), oral route, 32 h after administration, read-out: ED50 for inhibition of loperamide-induced retching), roughly 2.5 mg/kg; in test [2] (ferrets, oral administration, time of peak effect, read-out: graphically estimated peak-effect ED50 for blockade of retching (=0 retches)), 0.34 mg/kg; in test [2] (iv, read-out: ED50 for blockade of retching 1 h after i.v. injection, ferrets, i.v., 1 h), 0.26 mg/kg; in test [2] (iv, read-out: ED50 for inhibition of retching 1 h after i.v. injection, ferrets, i.v., 1 h), 0.15 mg/kg; in test [2] (setting [4]) it was 0.42 mg/kg. The ED50 is 0.16 mg/kg in test [2] (read-out: graphically estimated peak-effect ED50 for inhibition of retching (<20 retches), ferrets, oral administration, time of peak effect); 0.32 mg/kg in test [2] (setting [5]); 0.32 mg/kg in test [2] (sc, ferrets, blockade (=0 retches), subcutaneous route, 1 h after administration, read-out: ED50 for blockade of loperamide-induced retching); 0.18 mg/kg in test [2] (sc, ferrets, inhibition (<20 retches), subcutaneous route, 1 h after administration, read-out: ED50 for inhibition of loperamide-induced retching); 0.18 mg/kg in test [2] (sc, ferrets, s.c., 1 h, <20 retches, read-out: ED50 for inhibition of retching one hour after s.c. injection); 0.32 mg/kg in test [2] (sc, ferrets, s.c., 1 h, =0 retches, read-out: ED50 for complete blockade of retching one hour after s.c. injection). For the same compound, the duration of action in test [2] (ferrets, oral, at 4 times the peak-effect dose) came to 16 h. For the same compound, the “Ratio p.o./s.c. of ED50” value in test [2] (ferrets) was 1.3.
`O=C(/C=C/c1cccnc1)N1CCC(N2CCN([C@H]3CCN(C(=O)c4cc(C(F)(F)F)cc(C(F)(F)F)c4)[C@H](Cc4ccccc4)C3)CC2)CC1` [Compound 110]: the IC50 in test [1] is 0.1 nM.
The same measure, in the same setting: the figure for `O=C(C(c1ccccc1)N1CCC(N2CCN(C3CCN(C(=O)c4cc(C(F)(F)F)cc(C(F)(F)F)c4)C(Cc4ccccc4)C3)CC2)CC1)N1CCOCC1` (stereo not shown) [Compound 6] is 1 nM.
